Assay results reported in patent US9096608B2, “Pharmaceutically active pyrazolo-triazine derivatives” (LEAD DISCOVERY CENTER GMBH, priority 2012, dated 2015).

Tests used:
Format in all cases: biochemical
CDK2/CycA = molecular target: T1, CDK2/CycA (Homo sapiens, UniProt P24941); test: CDK2 Enzymatic Activity Assay (Lance Kinase Activity Assay, FRET); details: Table 5B; symbols per IC50 ranges of b615
T1 construct: purchased Proqinase
Experimental: (§1) This protocol describes how the Lance Kinase Activity Assay was performed to determine IC50 values of compounds of general formula (I) against CDK/Cyclin complexes. The principle behind this enzymatic assay is based upon the phosphorylation of the Ulight-Peptide Substrat. It is detected by using a specific EU-labeled anti-phospho peptide antibody.
(§2) Binding of an inhibitor to the kinase prevents phosphorylation of the ULlight-MBP Substrat, resulting in a loss of FRET.
CDK2 Enzymatic Activity Assay
(§3) The compounds of general formula (I) exemplary summarized in Table 1 were diluted from a 10 mM DMSO stock solution 1:10 in a total volume of 15 μl DMSO. This compound predilution was then serial diluted 1:3 over 8 steps in DMSO and briefly spun down. Each compound solution was now diluted 1:20 in Enzymatic Buffer (HEPES: 50 mM, pH: 7.5; MgCl2: 10 mM; EGTA: 1 mM; DTT: 2 mM; Tween-20: 0.01%), mixed thoroughly and spun down.
(§4) For positive controls, 2 μl of DMSO working solution were mixed with 6 μl CDK2/CycA/substrate working solution and 2 μl ATP working solution. Positive and negative controls were calculated from at least 8 different wells. The 384 well plates were mixed in a Teleshaker plate mixer (Beckman Coulter, Brea, Calif., USA) at 2000 rpm for 40 sec, and incubated for 1 h at room temperature before addition of 10 μl LANCE Detection Buffer (EDTA: 20 nM; Eu-Anti-P-MBP: 4 nM) per well. Plates were mixed in a Teleshaker plate mixer (Beckman Coulter, Brea, Calif., USA) at 2000 rpm for sec, followed by incubation with Detection Buffer for 1 h, and reading. […] IC50 values were determined from the sigmoidal dose response curves with the software Quattro Workflow (Quattro GmbH, Munich, Germany).

CDK7/CycH/Mat1 = molecular target: T2, CDK7/CycH/Mat1 (Homo sapiens, UniProt P50613); test: CDK7 Enzymatic Activity Assay (Lance Kinase Activity Assay, FRET); details: Table 5A; 25 μM ATP final; read-out: CDK7: IC50 [mM] for CDK7 inhibition (the above defined ranges apply)
T2 construct: purchased Carna
T2 sequence (P50613 whole entry): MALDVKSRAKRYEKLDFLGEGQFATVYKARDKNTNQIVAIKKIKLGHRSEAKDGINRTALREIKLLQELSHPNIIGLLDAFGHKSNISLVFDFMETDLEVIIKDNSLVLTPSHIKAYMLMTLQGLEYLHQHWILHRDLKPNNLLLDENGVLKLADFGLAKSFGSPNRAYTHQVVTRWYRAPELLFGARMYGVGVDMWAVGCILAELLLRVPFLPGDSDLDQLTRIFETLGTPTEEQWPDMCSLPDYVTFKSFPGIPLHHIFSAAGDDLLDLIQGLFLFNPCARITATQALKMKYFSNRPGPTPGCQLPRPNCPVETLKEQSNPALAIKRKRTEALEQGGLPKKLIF
T2 sequence (P51946 whole entry partner): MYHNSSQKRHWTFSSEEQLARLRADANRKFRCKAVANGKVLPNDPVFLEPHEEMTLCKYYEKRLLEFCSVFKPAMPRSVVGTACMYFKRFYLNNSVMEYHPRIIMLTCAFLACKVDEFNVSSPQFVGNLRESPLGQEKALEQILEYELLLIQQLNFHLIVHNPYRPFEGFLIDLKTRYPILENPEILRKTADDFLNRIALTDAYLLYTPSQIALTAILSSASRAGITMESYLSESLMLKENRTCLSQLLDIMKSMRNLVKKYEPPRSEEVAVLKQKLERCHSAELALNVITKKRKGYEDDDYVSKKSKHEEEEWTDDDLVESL
T2 sequence (P51948 whole entry partner): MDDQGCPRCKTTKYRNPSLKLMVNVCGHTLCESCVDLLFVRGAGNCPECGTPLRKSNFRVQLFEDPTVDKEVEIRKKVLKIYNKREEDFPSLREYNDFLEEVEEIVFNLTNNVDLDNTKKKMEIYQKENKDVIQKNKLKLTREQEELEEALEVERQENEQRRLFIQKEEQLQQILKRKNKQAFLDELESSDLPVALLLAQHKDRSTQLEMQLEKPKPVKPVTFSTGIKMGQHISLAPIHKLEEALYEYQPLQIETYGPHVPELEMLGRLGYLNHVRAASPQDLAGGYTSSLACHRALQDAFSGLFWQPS
Experimental: as §1, §2
CDK7 Enzymatic Activity Assay
as §3
as §4, with “6 μl CDK7/CycH/Mat1/substrate working solution” for “6 μl CDK2/CycA/substrate working solution”, “Detection Buffer (1×; EDTA: […];” for “Detection Buffer (EDTA: 20 nM;”, “rpm for 40 sec, followed” for “rpm for sec, followed”

CDK9/Cyclin T1 = molecular target: T3, CDK9/Cyclin T1 (Homo sapiens, UniProt P50750); test: CDK9 Enzymatic Activity Assay (Lance Kinase Activity Assay, FRET); details: Table 5B; symbols per IC50 ranges of b615
T3 construct: purchased Invitrogen
T3 sequence (P50750 whole entry): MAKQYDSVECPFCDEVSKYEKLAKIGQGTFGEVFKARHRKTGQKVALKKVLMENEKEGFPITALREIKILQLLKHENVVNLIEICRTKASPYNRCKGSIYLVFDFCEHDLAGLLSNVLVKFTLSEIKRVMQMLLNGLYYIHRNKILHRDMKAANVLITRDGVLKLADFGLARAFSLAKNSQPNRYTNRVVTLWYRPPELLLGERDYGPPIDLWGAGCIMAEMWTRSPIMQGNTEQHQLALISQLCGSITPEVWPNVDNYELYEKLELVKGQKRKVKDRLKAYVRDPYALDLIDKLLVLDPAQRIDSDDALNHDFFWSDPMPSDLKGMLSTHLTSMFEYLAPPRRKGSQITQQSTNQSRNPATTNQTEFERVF
T3 sequence (O60563 whole entry partner): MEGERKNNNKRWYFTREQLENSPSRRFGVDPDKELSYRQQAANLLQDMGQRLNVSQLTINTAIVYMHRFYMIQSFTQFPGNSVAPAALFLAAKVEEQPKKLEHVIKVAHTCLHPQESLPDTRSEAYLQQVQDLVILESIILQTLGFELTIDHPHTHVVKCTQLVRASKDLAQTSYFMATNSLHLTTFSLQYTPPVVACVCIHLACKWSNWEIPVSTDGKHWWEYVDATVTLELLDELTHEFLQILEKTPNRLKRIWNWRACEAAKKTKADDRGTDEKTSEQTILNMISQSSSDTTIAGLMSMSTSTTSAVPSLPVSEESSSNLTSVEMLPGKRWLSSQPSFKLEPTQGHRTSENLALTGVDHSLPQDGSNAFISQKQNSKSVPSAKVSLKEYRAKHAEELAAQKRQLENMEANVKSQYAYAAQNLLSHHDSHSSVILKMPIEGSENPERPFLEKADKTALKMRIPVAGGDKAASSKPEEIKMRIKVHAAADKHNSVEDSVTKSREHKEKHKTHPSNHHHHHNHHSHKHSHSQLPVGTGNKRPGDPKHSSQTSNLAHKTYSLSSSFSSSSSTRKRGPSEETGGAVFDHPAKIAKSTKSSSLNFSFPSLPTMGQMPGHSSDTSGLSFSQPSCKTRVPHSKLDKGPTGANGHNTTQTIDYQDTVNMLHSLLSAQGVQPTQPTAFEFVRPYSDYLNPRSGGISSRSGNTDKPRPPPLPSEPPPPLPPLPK
Experimental: as §1, §2
CDK9 Enzymatic Activity Assay
as §3
as §4, with “CDK9/cyclin T1/substrate” for “CDK2/CycA/substrate”, “(1×; EDTA:” for “(EDTA:”

Row | Structure (SMILES) | CDK2 IC50 range class (CDK2/CycA) | IC50 (CDK7/CycH/Mat1) | CDK9: Selectivity of CDK7 inhibition over CDK9 inhibition [fold] (CDK9/Cyclin T1)
1 | CC(C)c1cnn2c(NC(C)c3ccccc3-c3ccccc3)nc(O[C@@H]3CCCNC3)nc12 (stereo partly drawn) [(VII-as), N-(1-([1,1′-biphenyl]-2-yl)ethyl)-8-isopropyl-2-((R)-piperidin-3-yloxy)pyrazolo[1,5-a][1,3,5]triazin-4-amine] | +++ (IC50>2500 nM) | > 0.1 µM | +++ (IC50>2500 nM)
2 | CC(C)c1cnn2c(N[C@@H](C)c3ccccc3OC(F)(F)F)nc(O[C@@H]3CCCNC3)nc12 [(VII-at), 8-isopropyl-2-((R)-piperidin-3-yloxy)-N-((S)-1-(2-(trifluoro-methoxy)phenyl)ethyl)pyrazolo[1,5-a][1,3,5]triazin-4-amine] | +++ (IC50>2500 nM) | 0.03 to 0.1 µM | +++ (IC50>2500 nM)
3 | CC(C)c1cnn2c(N[C@@H](C)c3ccccc3I)nc(O[C@@H]3CCCNC3)nc12 [(VII-au), N-((S)-1-(2-iodophenyl)ethyl)-8-isopropyl-2-((R)-piperidin-3-yloxy)pyrazolo[1,5-a][1,3,5]triazin-4-amine] | +++ (IC50>2500 nM) | 0.01 to 0.03 µM | +++ (IC50>2500 nM)
4 | CCOc1ccccc1[C@H](C)Nc1nc(O[C@@H]2CCCNC2)nc2c(C(C)C)cnn12 [(VII-aw), N-((S)-1-(2-ethoxyphenyl)ethyl)-8-isopropyl-2-((R)-piperidin-3-yloxy)pyrazolo[1,5-a][1,3,5]triazin-4-amine] | +++ (IC50>2500 nM) | > 0.1 µM | +++ (IC50>2500 nM)
5 | CC(C)c1cnn2c(N[C@@H](C)c3cccc(OC(F)(F)F)c3)nc(O[C@@H]3CCCNC3)nc12 [(VII-ay), 8-isopropyl-2-((R)-piperidin-3-yloxy)-N-((S)-1-(3-(trifluoro-methoxy)phenyl)ethyl)pyrazolo[1,5-a][1,3,5]triazin-4-amine] | +++ (IC50>2500 nM) | 0.01 to 0.03 µM | +++ (IC50>2500 nM)
6 | COc1cc(F)ccc1[C@H](C)Nc1nc(O[C@@H]2CCCNC2)nc2c(C(C)C)cnn12 [(VII-az), N-((S)-1-(4-fluoro-2-methoxyphenyl)ethyl)-8-isopropyl-2-((R)-piperidin-3-yloxy)pyrazolo[1,5-a][1,3,5]triazin-4-amine] | +++ (IC50>2500 nM) | 0.03 to 0.1 µM | +++ (IC50>2500 nM)
7 | CC(C)c1cnn2c(N[C@@H](C)c3ccccc3O)nc(O[C@@H]3CCCNC3)nc12 [(VII-ba), 2-((S)-1-((8-isopropyl-2-((R)-piperidin-3-yloxy)pyrazolo[1,5-a][1,3,5]triazin-4-yl)amino)ethyl)phenol] | +++ (IC50>2500 nM) | < 0.01 µM | +++ (IC50>2500 nM)
8 | CC(C)COc1cccc([C@H](C)Nc2nc(O[C@@H]3CCCNC3)nc3c(C(C)C)cnn23)c1 [(VII-bb), N-((S)-1-(3-isobutoxyphenyl)ethyl)-8-isopropyl-2-((R)-piperidin-3-yloxy)pyrazolo[1,5-a][1,3,5]triazin-4-amine] | +++ (IC50>2500 nM) | 0.03 to 0.1 µM | +++ (IC50>2500 nM)
9 | CC(C)Oc1cccc([C@H](C)Nc2nc(O[C@@H]3CCCNC3)nc3c(C(C)C)cnn23)c1 [(VII-bc), N-((S)-1-(3-isopropoxy-phenyl)ethyl)-8-isopropyl-2-((R)-piperidin-3-yloxy)pyrazolo[1,5-a][1,3,5]triazin-4-amine] | +++ (IC50>2500 nM) | 0.01 to 0.03 µM | +++ (IC50>2500 nM)
10 | COc1ccc(OC)c([C@H](C)Nc2nc(O[C@@H]3CCCNC3)nc3c(C(C)C)cnn23)c1 [(VII-bd), N-((S)-1-(2,5-dimethoxy-phenyl)ethyl)-8-isopropyl-2-((R)-piperidin-3-yloxy)pyrazolo[1,5-a][1,3,5]triazin-4-amine] | +++ (IC50>2500 nM) | > 0.1 µM | +++ (IC50>2500 nM)
11 | CC(C)c1cnn2c(N[C@@H](C)c3ccccc3Br)nc(O[C@@H]3CCCNC3)nc12 [(VII-be), N-((S)-1-(2-bromophenyl)ethyl)-8-isopropyl-2-((R)-piperidin-3-yloxy)pyrazolo[1,5-a][1,3,5]triazin-4-amine] | +++ (IC50>2500 nM) | < 0.01 µM | +++ (IC50>2500 nM)
12 | COc1cc(OC)cc(C(C)Nc2nc(O[C@@H]3CCCNC3)nc3c(C(C)C)cnn23)c1 (stereo partly drawn) [(VII-bg), N-(1-(3,5-dimethoxy-phenyl)ethyl)-8-isopropyl-2-((R)-piperidin-3-yloxy)pyrazolo[1,5-a][1,3,5]triazin-4-amine] | +++ (IC50>2500 nM) | > 0.1 µM | +++ (IC50>2500 nM)
13 | CC(C)c1cnn2c(NC(C)c3cccc4c3cnn4C)nc(O[C@@H]3CCCNC3)nc12 (stereo partly drawn) [(VII-bh), 8-isopropyl-N-(1-(1-methyl-1H-indazol-4-yl)ethyl)-2-((R)-piperidin-3-yloxy)pyrazolo[1,5-a][1,3,5]triazin-4-amine] | +++ (IC50>2500 nM) | < 0.01 µM | +++ (IC50>2500 nM)
14 | COc1cccc([C@H](C)Nc2nc(OCCN3CCNCC3)nc3c(C(C)C)cnn23)c1 [(VII-bn), (S)-8-isopropyl-N-(1-(3-methoxyphenyl)ethyl)-2-(2-(piperazin-1-yl)ethoxy)pyrazolo[1,5-a][1,3,5]triazin-4-amine] | +++ (IC50>2500 nM) | > 0.1 µM | +++ (IC50>2500 nM)
15 | COc1cccc([C@H](C)Nc2nc(OC3CNC3)nc3c(C(C)C)cnn23)c1 [(VII-bv), (S)-2-(azetidin-S-yloxy)-8-isopropyl-N-(1-(3-methoxyphenyl)ethyl)pyrazolo[1,5-a][1,3,5]triazin-4-amine] | +++ (IC50>2500 nM) | < 0.01 µM | +++ (IC50>2500 nM)
16 | COc1cccc([C@H](C)Nc2nc(OCCN(C)S(=O)(=O)C3CCNCC3)nc3c(C(C)C)cnn23)c1 [(VII-bw), (S)-N-(2-((8-isopropyl-4-((1-(3-methoxyphenyl)ethyl)amino)pyrazolo[1,5-a][1,3,5]triazin-2-yl)oxy)ethyl)-N-methylpiperidine-4-sulfonamide] | +++ (IC50>2500 nM) | < 0.01 µM | +++ (IC50>2500 nM)
17 | COc1cccc([C@H](C)Nc2nc(OC3COC4(CCNCC4)C3)nc3c(C(C)C)cnn23)c1 (stereo partly drawn) [(VII-bx), 2-(1-oxa-8-azaspiro[4.5]decan-3-yloxy)-8-isopropyl-N-((S)-1-(3-methoxyphenyl)ethyl)pyrazolo[1,5-a][1,3,5]triazin-4-amine] | +++ (IC50>2500 nM) | < 0.01 µM | +++ (IC50>2500 nM)
18 | CC(C)c1cnn2c(NC(C)c3ccccc3N3CCC3)nc(O[C@@H]3CCCNC3)nc12 (stereo partly drawn) [(VII-by), N-(1-(2-(azetidin-1-yl)phenyl)ethyl)-8-isopropyl-2-((R)-piperidin-3-yloxy)pyrazolo[1,5-a][1,3,5]triazin-4-amine] | +++ (IC50>2500 nM) | < 0.01 µM | +++ (IC50>2500 nM)
